Results as given in patent publication US8551999B2, “Heterocyclic compound and pharmaceutical composition thereof” (Otsuka Pharmaceutical Co., Ltd., priority 2007, dated 2013).

Compound | melting point
Br.CN(C(=O)c1ccc(Cl)c(Cl)c1)c1ccc(Oc2ccc3cc(C(=O)N4CCN(Cc5ccc6c(c5)OC(F)(F)O6)CC4)n(C)c3c2)nc1 [Example 489, 3,4-Dichloro-N-(6-{2-[4-(2,2-difluorobenzo[1,3]dioxol-5-yl-methyl)piperazine-1-carbonyl]-1-methyl-1H-indol-6-yloxy}pyridin-3-yl)-N-methylbenzamide hydrobromide] | 225.4 to 227.1 °C
CN(c1ccc(Oc2ccc3c(c2)cc(C(=O)N2CCN(Cc4ccc(OCC(F)(F)F)cc4)CC2)n3C)nc1)S(=O)(=O)c1ccc(C(F)(F)F)cc1 [Example 527, N-Methyl-N-[6-(1-methyl-2-{4-[4-(2,2,2-trifluoroethoxy)benzyl]-piperazine-1-carbonyl}-1H-indol-5-yloxy)pyridin-3-yl]-4-tri-fluoromethylbenzenesulfonamide] | 191.8 to 194.4 °C
C[C@@H]1CN(Cc2ccccn2)CCN1C(=O)c1cc2cc(Oc3ccc(NC(=O)c4ccc(C(F)(F)F)cc4)cn3)ccc2n1C.O=C(O)C(=O)O.O=C(O)C(=O)O [Example 392, N-{6-[1-Methyl-2-((R)-2-methyl-4-pyridin-2-ylmethylpiperazine-1-carbonyl)-1H-indol-5-yloxy]pyridin-3-yl}-4-trifluoromethyl-benzamide dioxalate] | 128 to 130 °C
CCOc1ccc(CN2CCN(C(=O)c3cc4cc(Oc5ccc(N(C)C(=O)c6ccc(Cl)c(Cl)c6)cn5)ccc4n3C)CC2)cc1.CS(=O)(=O)O [Example 361, 3,4-Dichloro-N-(6-{2-[4-(4-ethoxybenzyl)piperazine-1-carbonyl]-1-methyl-1H-indol-5-yloxy}pyridin-3-yl)-N-methylbenzamide methanesulfonate] | 168 to 170 °C
CC(C)Oc1ccc(CN2CCN(C(=O)c3cc4ccc(Oc5ccc(N(C)C(=O)c6ccc(OC(F)F)cc6)cn5)cc4n3C)CC2)cc1.Cl | 229.7 to 230.4 °C
COc1ccc(CN2CCN(C(=O)c3cc4cc(Oc5ccc(N(C)C(=O)c6cc7cc(Br)ccc7[nH]6)cn5)ccc4n3C)CC2)cc1.O=C(O)/C=C\C(=O)O [Example 229, 5-Bromo-1H-indole-2-carboxylic acid (6-{2-[4-(4-methoxybenzyl)-piperazine-1-carbonyl]-1-methyl-1H-indol-5-yloxy}pyridin-3-yl)-methylamide maleate] | 205 to 207 °C
Cc1nc(Oc2ccc3c(c2)cc(C(=O)N2CCN(Cc4ccncc4)CC2)n3C)ccc1N(C)C(=O)c1ccc(C(F)(F)F)cc1.O=C(O)C(=O)O.O=C(O)C(=O)O [Example 566, N-Methyl-N-{2-methyl-6-[1-methyl-2-(4-pyridin-4-ylmethyl-piperazine-1-carbonyl)-1H-indol-5-yloxy]pyridin-3-yl}-4-tri-fluoromethylbenzamide dioxalate] | 117 to 120 °C
Br.Cc1c(Oc2ccc(N(C)C(=O)c3ccc(C(F)(F)F)cc3)cn2)ccc2c1cc(C(=O)N1CCN(Cc3ccc(C#N)cc3)CC1)n2C [Example 425, N-(6-{2-[4-(4-Cyanobenzyl)piperazine-1-carbonyl]-1,4-dimethyl-1H-indol-5-yloxy}pyridin-3-yl)-N-methyl-4-trifluoromethylbenzamide hydrobromide] | 249 to 252 °C
COc1ccc(CN2CCN(C(=O)c3cc4cc(Oc5ccc(N(C)C(=O)c6ccc(Cl)c(Cl)c6)cn5)ccc4n3C)CC2)cc1.O=C(O)/C=C\C(=O)O [Example 347, 3,4-Dichloro-N-(6-{2-[4-(4-methoxybenzyl)piperazine-1-carbonyl]-1-methyl-1H-indol-5-yloxy}pyridin-3-yl)-N-methylbenzamide maleate] | 171 to 172 °C
CN(C(=O)c1ccc(C(F)(F)F)cc1F)c1ccc(Oc2ccc3cc(C(=O)N4CCN(Cc5ccc(OCC(F)(F)F)cc5)CC4)n(C)c3c2)nc1.Cl | 234.5 to 235.8 °C
CC(C)Oc1ccc(CN2CCN(C(=O)c3cc4ccc(Oc5ncc(N(C)S(C)(=O)=O)cn5)cc4n3C)CC2)cc1 [Example 45, N-(2-{2-[4-(4-Isopropoxybenzyl)piperazine-1-carbonyl]-1-methyl-1H-indol-6-yloxy}pyrimidin-5-yl)-N-methylmethanesulfonamide] | 134.3 to 135.6 °C
Br.COCc1ccc(CN2CCN(C(=O)c3cc4ccc(Oc5ccc(NC(=O)c6ccc(Cl)c(Cl)c6)cn5)cc4n3C)CC2)cc1 [Example 259, 3,4-Dichloro-N-(6-{2-[4-(4-methoxymethylbenzyl)piperazine-1-carbonyl]-1-methyl-1H-indol-6-yloxy}pyridin-3-yl)benzamide hydrobromide] | 243.6 to 247.7 °C
Cc1ccc(S(=O)(=O)N(C)c2cnc(Oc3ccc4cc(C(=O)N5CCN(Cc6ccc(OC(C)C)cc6)CC5)n(C)c4c3)nc2)cc1 [Example 44, N-(2-{2-[4-(4-Isopropoxybenzyl)piperazine-1-carbonyl]-1-methyl-1H-indol-6-yloxy}pyrimidin-5-yl)-4,N-dimethylbenzenesulfonamide] | 154.3 to 155.1 °C
Cl.Cn1c(C(=O)N2CCN(Cc3ccc(OCC(F)(F)F)cc3)CC2)cc2ccc(Oc3ccc(NC(=O)c4ccc(C(F)(F)F)c(F)c4)cn3)cc21 | 259 to 263.2 °C
CCCCS(=O)(=O)N(C)c1ccc(Oc2ccc3cc(C(=O)N4CCN(Cc5ccc(OCC(F)(F)F)cc5)CC4)n(C)c3c2)nc1.Cl | 253.6 to 254.4 °C
Br.Cc1cc(Oc2ccc3cc(C(=O)N4CCN(Cc5ccc(OC(F)F)cc5)CC4)n(C)c3c2)ncc1N(C)S(=O)(=O)c1ccc(Cl)c(Cl)c1 [Example 311, 3,4-Dichloro-N-(6-{2-[4-(4-difluoromethoxybenzyl)piperazine-1-carbonyl]-1-methyl-1H-indol-6-yloxy}-4-methylpyridin-3-yl)-N-methylbenzenesulfonamide hydrobromide] | 213.5 to 215.3 °C
CS(=O)(=O)O.CS(=O)(=O)O.Cc1c(Oc2ccc(NC(=O)c3ccc(C(F)(F)F)cc3)cn2)ccc2c1cc(C(=O)N1CCN(Cc3ccccn3)CC1)n2C [Example 234, N-{6-[1,4-Dimethyl-2-(4-pyridin-2-ylmethylpiperazine-1-carbonyl)-1H-indol-5-yloxy]pyridin-3-yl}-4-trifluoromethylbenzamide bismethanesulfonate] | 149 to 150 °C
Br.Cn1c(C(=O)N2CCN(Cc3ccc4c(c3)OCO4)CC2)cc2cc(Oc3ccc(NC(=O)c4ccc(C(F)(F)F)cc4C(F)(F)F)cn3)ccc21 [Example 9, N-{6-[2-(4-Benzo[1,3]dioxol-5-ylmethylpiperazine-1-carbonyl)-1-methyl-1H-indol-5-yloxy]pyridin-3-yl}-2,4-bistrifluoromethyl-benzamide hydrobromide] | 258 to 261 °C (dec.)
Br.Br.CN(C(=O)c1ccc(Cl)c(Cl)c1)c1ccc(Oc2ccc3c(c2)cc(C(=O)N2CCN(Cc4ccncc4)CC2)n3C)nc1 [Example 554, 3,4-Dichloro-N-methyl-N-{6-[1-methyl-2-(4-pyridin-4-ylmethyl-piperazine-1-carbonyl)-1H-indol-5-yloxy]pyridin-3-yl}benzamide dihydrobromide] | 204 to 208 °C (dec.)

Now from value to compound:

melting point | Compound
239 to 241 °C | Br.COc1ccc(CN2CCN(C(=O)c3cc4cc(Oc5ccc(NC(=O)c6ccc(C(F)(F)F)cc6Cl)cn5)ccc4n3C)CC2)cc1 [Example 231, 2-Chloro-N-(6-{2-[4-(4-methoxybenzyl)piperazine-1-carbonyl]-1-methyl-1H-indol-5-yloxy}pyridin-3-yl)-4-trifluoromethylbenzamide hydrobromide]
197.7 to 199.3 °C | Cc1cc(C(F)(F)F)ccc1C(=O)Nc1ccc(Oc2ccc3cc(C(=O)N4CCN(Cc5ccc(OC(C)C)cc5)CC4)n(C)c3c2)nc1.Cl
139 to 142 °C | COc1ccc(CNC2CCN(C(=O)c3cc4cc(Oc5ccc(NC(=O)c6ccc(C(F)(F)F)cc6)cn5)ccc4n3C)CC2)cc1 [Example 233, N-[6-(2-{4-[(4-Methoxyphenyl)methylamino]piperidine-1-carbonyl}-1-methyl-1H-indol-5-yloxy)pyridin-3-yl]-4-trifluoromethyl-benzamide]
223 to 225 °C (dec.) | Br.Br.Cc1nc(Oc2ccc3c(c2)cc(C(=O)N2CCN(Cc4ccncc4)CC2)n3C)ccc1NC(=O)c1ccc(C(F)(F)F)cc1 [Example 565, N-{2-Methyl-6-[1-methyl-2-(4-pyridin-4-ylmethylpiperazine-1-carbonyl)-1H-indol-5-yloxy]pyridin-3-yl}-4-trifluoromethyl-benzamide dihydrobromide]
215.3 to 216.6 °C | Br.CN(C(=O)c1ccc(C(F)(F)F)cc1)c1ccc(Oc2ccc3cc(C(=O)N4CCN(Cc5ccc(OCCF)cc5)CC4)n(C)c3c2)nc1 [Example 438, N-[6-(2-{4-[4-(2-Fluoroethoxy)benzyl]piperazine-1-carbonyl}-1-methyl-1H-indol-6-yloxy)pyridin-3-yl]-N-methyl-4-trifluoromethyl-benzamide hydrobromide]
231 to 233 °C | Br.COc1cccc(CN2CCN(C(=O)c3cc4cc(Oc5ccc(NC(=O)c6ccc(C(F)(F)F)cc6)cn5)ccc4n3C)CC2)c1 [Example 353, N-(6-{2-[4-(3-Methoxybenzyl)piperazine-1-carbonyl]-1-methyl-1H-indol-5-yloxy}pyridin-3-yl)-4-trifluoromethylbenzamide hydrobromide]
247.7 to 249.8 °C | Cl.Cn1c(C(=O)N2CCN(Cc3ccc(OC(F)F)cc3)CC2)cc2ccc(Oc3ncc(NC(=O)c4ccc(C(F)(F)F)cc4)cn3)cc21
239.8 to 240.8 °C | Br.Cn1c(C(=O)N2CCN(Cc3ccc(OC(CF)CF)cc3)CC2)cc2ccc(Oc3ccc(NC(=O)c4ccc(C(F)(F)F)cc4Cl)cn3)cc21 [Example 537, 2-Chloro-N-[6-(2-{4-[4-(2-fluoro-1-fluoromethylethoxy)benzyl]-piperazine-1-carbonyl}-1-methyl-1H-indol-6-yloxy)pyridin-3-yl]-4-trifluoromethylbenzamide hydrobromide]
161 to 163 °C | COc1ccc(CN2CCN(C(=O)c3cc4cc(Oc5ccc(NC(=O)c6ccc(C(F)(F)F)cc6)cn5)ccc4n3C)[C@H](C)C2)cc1.O=C(O)C(=O)O [Example 393, N-(6-{2-[(R)-4-(4-Methoxybenzyl)-2-methylpiperazine-1-carbonyl]-1-methyl-1H-indol-5-yloxy}pyridin-3-yl)-4-trifluoromethyl-benzamide oxalate]
